According to the NIST ThermoML archive (doi:10.1016/j.fluid.2007.04.030):

Assay: xn = mol fraction of the nth substance listed
Settings: 101 kPa, Liquid

COc1cc2c(cc1O)CC1c3c(cc(O)c(OC)c3-2)CCN1C (configuration not stated) [boldine] + CCCCO
mass density [kg/m3]
Settings	x1 = 0.00228	x1 = 0.00461	x1 = 0.00696	x1 = 0.00936	x1 = 0.01178	x1 = 0.01427	x1 = 0.01678
283.15 K	820.49	823.85	827.2	830.57	833.94	837.36	840.79
288.15 K	816.73	820.08	823.43	826.79	830.16	833.57	837
293.15 K	812.93	816.28	819.62	822.98	826.35	829.75	833.18
298.15 K	809.11	812.45	815.8	819.15	822.52	825.92	829.34
303.15 K	805.26	808.6	811.94	815.29	818.66	822.06	825.48
308.15 K	801.39	804.72	808.06	811.4	814.77	818.16	821.58
313.15 K	797.47	800.81	804.14	807.48	810.84	814.23	817.64
318.15 K	793.52	796.85	800.17	803.52	806.87	810.25	813.67
323.15 K	789.52	792.84	796.17	799.51	802.86	806.23	809.66
328.15 K	785.47	788.79	792.11	795.45	798.79	802.17	805.59
333.15 K	781.35	784.67	787.99	791.32	794.67	798.05	801.46

COc1cc2c(cc1O)CC1c3c(cc(O)c(OC)c3-2)CCN1C (configuration not stated) [boldine] + CCCO
mass density [kg/m3]
Settings	x1 = 0.00185	x1 = 0.00374	x1 = 0.00565	x1 = 0.0076	x1 = 0.00957	x1 = 0.01158	x1 = 0.01361
283.15 K	814.99	818.36	821.77	825.23	828.61	832.08	835.59
288.15 K	811.04	814.41	817.81	821.26	824.65	828.12	831.61
293.15 K	807.05	810.42	813.82	817.26	820.65	824.12	827.61
298.15 K	803.04	806.4	809.8	813.24	816.64	820.1	823.59
303.15 K	799	802.35	805.75	809.2	812.59	816.05	819.54
308.15 K	794.92	798.27	801.67	805.12	808.5	811.96	815.45
313.15 K	790.81	794.14	797.55	800.98	804.37	807.83	811.31
318.15 K	786.65	789.98	793.39	796.82	800.21	803.65	807.13
323.15 K	782.43	785.77	789.17	792.6	795.99	799.42	802.91
328.15 K	778.16	781.5	784.89	788.33	791.71	795.16	798.63
333.15 K	773.81	777.16	780.54	783.99	787.37	790.82	794.3

CCCCO [butan-1-ol] + COc1cc2c(cc1O)CC1c3c(cc(O)c(OC)c3-2)CCN1C
x2 = 0
Settings	mass density [kg/m3]
283.15 K	817.15
288.15 K	813.38
293.15 K	809.59
298.15 K	805.77
303.15 K	801.92
308.15 K	798.05
313.15 K	794.14
318.15 K	790.19
323.15 K	786.19
328.15 K	782.14
333.15 K	778.03

CCO [ethanol] + COc1cc2c(cc1O)CC1c3c(cc(O)c(OC)c3-2)CCN1C
x2 = 0
Settings	mass density [kg/m3]
283.15 K	797.96
288.15 K	793.71
293.15 K	789.44
298.15 K	785.15
303.15 K	780.83
308.15 K	776.48
313.15 K	772.09
318.15 K	767.65
323.15 K	763.17
328.15 K	758.63
333.15 K	754.01

CCCCCCO [hexan-1-ol] + COc1cc2c(cc1O)CC1c3c(cc(O)c(OC)c3-2)CCN1C
x2 = 0
Settings	mass density [kg/m3]
283.15 K	827.82
288.15 K	824.25
293.15 K	820.65
298.15 K	817.03
303.15 K	813.39
308.15 K	809.71
313.15 K	806
318.15 K	802.27
323.15 K	798.49
328.15 K	794.67
333.15 K	790.8

CO [methanol] + COc1cc2c(cc1O)CC1c3c(cc(O)c(OC)c3-2)CCN1C
x2 = 0
Settings	mass density [kg/m3]
283.15 K	801.08
288.15 K	796.41
293.15 K	791.71
298.15 K	787.01
303.15 K	782.29
308.15 K	777.55
313.15 K	772.78
318.15 K	767.97
323.15 K	763.12
328.15 K	758.23
333.15 K	753.29

CCCCCCCCO [octan-1-ol] + COc1cc2c(cc1O)CC1c3c(cc(O)c(OC)c3-2)CCN1C
x2 = 0
Settings	mass density [kg/m3]
283.15 K	832.13
288.15 K	828.71
293.15 K	825.27
298.15 K	821.81
303.15 K	818.33
308.15 K	814.84
313.15 K	811.31
318.15 K	807.76
323.15 K	804.19
328.15 K	800.58
333.15 K	796.93

CCCCCO [pentan-1-ol] + COc1cc2c(cc1O)CC1c3c(cc(O)c(OC)c3-2)CCN1C
x2 = 0
Settings	mass density [kg/m3]
283.15 K	822.42
288.15 K	818.79
293.15 K	815.13
298.15 K	811.45
303.15 K	807.74
308.15 K	804.01
313.15 K	800.24
318.15 K	796.43
323.15 K	792.57
328.15 K	788.67
333.15 K	784.72

CCCO [propan-1-ol] + COc1cc2c(cc1O)CC1c3c(cc(O)c(OC)c3-2)CCN1C
x2 = 0
Settings	mass density [kg/m3]
283.15 K	811.57
288.15 K	807.62
293.15 K	803.63
298.15 K	799.62
303.15 K	795.58
308.15 K	791.49
313.15 K	787.37
318.15 K	783.22
323.15 K	779.01
328.15 K	774.73
333.15 K	770.39

CC(C)O [propan-2-ol] + COc1cc2c(cc1O)CC1c3c(cc(O)c(OC)c3-2)CCN1C
x2 = 0
Settings	mass density [kg/m3]
283.15 K	793.31
288.15 K	789.22
293.15 K	785.08
298.15 K	780.87
303.15 K	776.6
308.15 K	772.25
313.15 K	767.81
318.15 K	763.28
323.15 K	758.64
328.15 K	753.88
333.15 K	749.01
